Experimental findings from patent publication US20160102317A1, “PLANTS HAVING INCREASED TOLERANCE TO HERBICIDES” (BASF SE, priority 2013, published 2016) are described below.

What all share (assay): HPPD activity assay, tolerance index
One experiment has as its system Synechococcus HPPD. It counts as biochemical. The settings on record: Table 12, normalized to reference SEQ ID NO:53. As to the method: (§1) HPPD produces homogentisic acid and CO2 from 4-hydroxyphenylpyruvate (4-HPP) and 02. The activity assay for HPPD is based on the analysis of homogentisic acid by reversed phase HPLC. The assay mixture can contain 150 mM potassium phosphate buffer pH 7.0, 50 mM L-ascorbic acid, 100 μM Catalase (Sigma-Aldrich), 1 μM FeSO4 and 0.2 units of purified HPPD enzyme in a total volume of 505 μl. 1 unit is defined as the amount of enzyme that is required to produce 1 nmol of HGA per minute at 20° C.
(§2) After a preincubation of 30 min the reaction is started by adding 4-HPP to a final concentration of 0.05 mM. The reaction is allowed to proceed for 45 min at room temperature. The reaction is stopped by the addition of 50 μl of 4.5 M phosphoric acid. The sample is filtered using a […] pore size PVDF filtration device.
(§3) 5 μl of the cleared sample is analyzed on an UPLC HSS T3 column (particle size 1.8 μm, dimensions 2.1×50 mm; Waters) by isocratic elution using 90% 20 mM NaH2PO4 pH 2.2, 10% methanol (v/v).
(§4) HGA is detected electrochemically at 750 mV (mode: DC; polarity: positive) and quantified by integrating peak areas (Empower software; Waters).
(§5) Inhibitors are dissolved in DMSO (dimethylsulfoxide) to a concentration of 0.5 mM. From this stock solution serial five-fold dilutions are prepared in DMSO, which are used in the assay. The respective inhibitor solution accounts for 1% of the assay volume. Thus, final inhibitor concentrations range from 5 μM to 320 μM, respectively. […] IC50 values are calculated using non-linear regression.
(§6) Using methods which are described in the above examples or well known in the art, purified, recombinant wild-type HPPD enzymes are characterized with respect to their kinetic properties and sensitivity towards HPPD inhibiting herbicides. Apparent michaelis constants (Km) and maximal reaction velocities (Vmax) are calculated by non-linear regression with the software GraphPad Prism 5 (GraphPad Software, La Jolla, USA) using a substrate inhibition model. […] Weighted means (by standard error) of Km and IC50 values are calculated from at least three independent experiments. […]

Experiment [1] deals with Rhodococcus HPPD (Seq ID 44). It counts as biochemical. The note with it: Table 12; Rhodococcus (Seq ID 44); normalized to reference SEQ ID NO:53. As to the method: as §1, §2, §3, §4, §5, §6
In experiment [2] the test system is Rhodococcus HPPD (Seq ID 46). The format is biochemical. The settings on record: Table 12; Rhodococcus (Seq ID 46); normalized to reference SEQ ID NO:53. The procedure:
as §1, §2, §3, §4, §5, §6

The subject of the next experiment is Picrophilus HPPD. It counts as biochemical, Picrophilus torridus. The settings on record: Table 12, normalized to reference SEQ ID NO:53. The procedure: as §1, §2, §3, §4
Inhibitors are dissolved in DMSO (dimethylsulfoxide) to a concentration of 0.5 mM. From this stock solution serial five-fold dilutions are prepared in DMSO, which are used in the assay. […] IC50 values are calculated using non-linear regression. […]

For `COc1no[nH]/c1=N/C(=O)c1ccc2c(c1Cl)S(=O)(=O)CCC2(C)C` [Inhibitor 1, (NE)-8-chloro-N-(4-methoxy-1,2,5-oxadiazol-3-ylidene)-4,4-dimethyl-1,1-dioxo-2,3-dihydrothiochromene-7-carboxamide], the “TI Inhibitor 1 (normalized tolerance index)” value was 11.9 with Synechococcus HPPD, 25.2 in experiment [1], 1.2 in experiment [2] and 0.4 in the experiment with Picrophilus HPPD.
